Data as given in US4833268A, “Threo-adrenalinecarboxylic acid, and the production and uses thereof” (Zaidan Hojin Biseibutsu Kagaku Kenkyu Kai, priority 1982, dated 1989).
Read-outs that look alike come from different tables or passages of the source.

What was measured:
[1] = assay type: in vivo, mice; conditions: 500 mg/kg i.p., whole brain 90 minutes after administration
harmaline-induced tremor = assay: Test 1: inhibitory activity against harmaline-induced tremor; assay type: in vivo, ddY-strain mice; conditions: for Reduction (%) in the duration of tremor action: 30 minutes before harmaline 10 mg/kg i.p., relative to harmaline-only control
Protocol: This test was made according to one usual method for screening antiparkinsonian drugs which determines inhibitory activity against harmaline-induced tremor.
ddY-strain Mice (male, body weight 20-30 g, five in each group) were used as test animal for respective tests. The new compound, DL-threo-adrenalinecarboxylic acid according to this invention, was intraperitoneally administered to each of the mice at a dosage of 400 mg/kg or […], and after the lapse of 30 minutes harmaline was also intrapenitoneally injected to the same mice at a dosage of 10 mg/kg. Then, the duration of tremor action as induced in the mice under test was observed and recorded. The rate (percentage) of reduction in the duration of tremor action in relation to the control group of mice to which only harmaline was administered in the same dosage was calculated by the equation given below. By way of comparison DL-threo-3-(3,4-dihydroxyphenyl)serine (i.e. DL-threo-DOPS) in a dosage of 400 mg/kg was tested in the same manner as above. [formula]

[2] = Test 7: in vitro decarboxylation by supernatant of mouse whole brain homogenate; conditions: mouse, brain homogenate supernatant, pH 8
Protocol: (§1) The whole brains of mice of ddY-strain were homogenized and the resulting brain homogenate was diluted with the same volume of a buffere solution (comprising 50 mM Tris-HCl (pH 8.6, 1.5 mM EDTA.2Na); 0.5 mM Pridoxal-5-Phosphate; 1 mM Nialamide; and 0.85 mM L-ascorbic acid), and the mixture was centrifuged at 10,000 g to give a supernatant liquid containing the brain enzymes. To this supernatant liquid (500 μl) was added a solution containing 4.5 mM of a substrate selected from L-threo-adrenalinecarboxylic acid, L-threo-DOPS and L-DOPA. The mixture obtained (pH ca. 8, 1.0 ml) was incubated for 30 minutes at 37° C., followed by quantitative determination of adrenaline, noradrenaline or dopamine formed as the reaction product catecholamine.
(§2) The determination of the catecholamine as produced (adrenaline, noradrenaline or […]) was made according to the following procedure: Thus, the incubated mixture was admixed with aqueous 6% perchloric acid (PCA) for stopping the enzymatic reactions, and the reaction solution so obtained was de-salted by adding thereto potassium carbonate to precipitate the potassium perchlorate, and removing the precipitate by filtration. The de-salted reaction solution was passed through a column of Amberlite CG-50 as developed with 250 μl of 2N-PCA solution and then with 250μl of water. The eluate was analyzed by a high performance liquid chromatography under the following conditions:
(§3) Mobile Phase: 0.1M Citrate buffer (pH 4.3)-methanol(9:1) containing 0.0025M 1-octane sulfonic acid sodium salt
(§4) Column temperature: 40° C.
(§5) Applied voltage: 600 mV vs. Ag/AgCl.
(§6) The yield of the catecholamine as formed was calculated in term of percentages based on the quantity of the substrate charged, and this calculated yield denotes the rate of decarboxylation of the substrate compound (in %).

[3] = cited from earlier work; for levels of noradrenaline in heart and brain: intraperitoneal administration of high dosages; for accumulation of noradrenaline in brain: after intraperitoneal administration, rats; for decarboxylation in vivo, leading to accumulation of noradrenaline in heart: intraperitoneally administered in rats
[4] = tested on: reserpine-induced decrease in the body temperature and muscular rigidity; assay: Test 3: reserpine-induced decrease in body temperature and muscular rigidity (reserpine 2.5 mg/kg s.c.); assay type: in vivo, ddY-strain mice; conditions: for Body Temperature (°C.) (Average ± Standard deviation) 24 Hours after administration of reserpine: 800 mg/kg group, 24 hours after reserpine 2.5 mg/kg s.c., before test compound; for Body Temperature (°C.) (Average ± Standard deviation) 1 Hour after administration of adrenaline carboxylic acid / Muscular Rigidity: number of mice exhibiting significant improvement in the muscular rigidity per the total number of mice in each group: given 24 hours after reserpine 2.5 mg/kg s.c.; for Body Temperature (°C.) (Average ± Standard deviation) Before administration of reserpine: baseline of the 800 mg/kg group, before reserpine and before test compound
Protocol: After this, 800 mg/kg of L-threo-adrenalinecarboxylic acid or 800 mg/kg of D-threo-adrenalinecarboxylic acid or DL-threo-adrenalinecarboxylic acid synthetized according to this invention was intraperitoneally administered to the mice having received reserpine. One hour after the administration of the threo-adrenalinecarboxylic acid, the body temperature of the treated mice was determined. Estimation was also made about whether the muscular rigidity as induced by reserpine was improved by the administration of the threo-adrenalinecarboxylic acid of this invention.

[5] = tested on: brain enzymes (homogenate of the whole brains of mice); assay: Test 7: in vitro decarboxylation by supernatant of mouse whole brain homogenate
Protocol: as §1, §2, §3, §4, §5, §6

[6] = Test 6: brain concentration of 14C-labelled compound after intravenous administration; assay type: in vivo, C57 Black-strain mice; conditions: administered intraperitoneally or intravenously in mice
Protocol: After a last injection of heparin, the treated mice were anesthetized with ethylether and the breast opened surgically. The blood was withdrawn from the heart and the lower portion of the heart ventricle was cut off. A catheter was inserted at the ventricle into the artery and fixed by means of binding threads. The two veins at the neck were opened surgically, and immediately physiological saline was injected through said catheter so that the remaining blood was entirely withdrawn at the opened veins together with the washing saline. The whole brain was removed from the sacrificed mouse, and the whole brain was dried in air at ambient temperature overnight.

[7] = tested on: reserpine-induced decrease in the body temperature; assay: Test 2: inhibition of reserpine-induced decrease in body temperature (reserpine 4 mg/kg i.p.); assay type: in vivo, ddY-strain mice; conditions: for Body Temperature (°C.) 1 Hour after / Body Temperature (°C.) 2 Hours after: given 24 hours after reserpine 4 mg/kg i.p.
Protocol: ddY-strain Mice (male, body weight 20-30 g, five in each group) were used as the test animal for respective tests. Reserpine was intraperitoneally administered to each mouse at a dose of 4 mg/kg. 24 Hours later, the decreased body temperature of the mice was observed and recorded. After this, 1500 mg/kg or 2000 mg/kg of DL-threo-adrenalinecarboxylic acid was intraperitoneally administered to each of the mice having received reserpine. At the end of 1 hour and at the end of 2 hours after the administration of the DL-threo-adrenalinecarboxylic acid, the body temperature of these treated mice was determined and shown in Table 3 below.

Test 4: acute toxicity = conditions: i.p., 0.5 ml per mouse of 20 mg/ml suspension in 0.5% CMC
Protocol: This test is carried out to examine acute toxicity of the DL-threo-adrenalinecarboxylic acid.
To DDB4-strain mice (male, body weight 23-28 g, six in each group) was intraperitoneally administered at a dosage of 0.5 ml per mouse a suspension containing 20 mg/ml of DL-threo-adrenalinecarboxylic acid dispersed in an aqueous solution of 0.5% carboxymethylcellulose (CMC). The mice were then raised under normal conditions for 7 days after the administration of the compound. During these 7 days, the mice were observed and estimated with regard to their body weight, the quantity of feedstock and the quantity of water which were taken by the mice.

Structure (SMILES): N[C@H](C(=O)O)[C@H](O)c1ccc(O)c(O)c1 (relative stereo) [DL-threo-DOPS, DL-threo-3-(3,4-dihydroxyphenyl)serine, reference compound]
- Quantity (as average) of the administered compound present in brain [1]: Not detectable
- Reduction (%) in the duration of tremor action (harmaline-induced tremor; 400 mg/kg i.p.): 26%

Structure (SMILES): N[C@@H](Cc1ccc(O)c(O)c1)C(=O)O [L-DOPA, L-3,4-dihydroxyphenylalanine]
- metabolised at 0.5 h, 4500 µM [2]: > 11.7%

Structure (SMILES): N[C@@H](C(=O)O)[C@@H](O)c1ccc(O)c(O)c1 [D-threo-DOPS]
- levels of noradrenaline in heart and brain [3]: slight increase

Structure (SMILES): CN[C@@H](C(=O)O)[C@@H](O)c1ccc(O)c(O)c1 [D-threo-adrenalinecarboxylic acid]
- Body Temperature (°C.) (Average ± Standard deviation) 24 Hours after administration of reserpine [4]: 36.0 ± 0.5 °C
- Body Temperature (°C.) (Average ± Standard deviation) 1 Hour after administration of adrenaline carboxylic acid ([4]; 800 mg/kg i.p.): 35.9 ± 0.5 °C
- Muscular Rigidity: number of mice exhibiting significant improvement in the muscular rigidity per the total number of mice in each group ([4]; 800 mg/kg i.p.): 0/5
- Body Temperature (°C.) (Average ± Standard deviation) Before administration of reserpine [4]: 38.9 ± 0.2 °C

Structure (SMILES): N[C@H](C(=O)O)[C@H](O)c1ccc(O)c(O)c1 [L-threo-DOPS, L-threo-3-(3,4-dihydroxyphenyl)serine]
- accumulation of natural (l)-noradrenaline in the brain ([3]; after direct injection into a cerebral ventricle): marked
- accumulation of noradrenaline in brain [3]: negligible
- decarboxylation in vivo, leading to accumulation of noradrenaline in heart [3]: readily decarboxylated in vivo
- metabolised at 0.5 h, 4500 µM [2]: > 0.52%
- decarboxylation in vitro by homogenate of whole brains of mice, in words [5]: can be decarboxylated into noradrenaline

Structure (SMILES): CN[C@H](C(=O)O)[C@H](O)c1ccc(O)c(O)c1 [L-threo-adrenalinecarboxylic acid, L-threo-3-(3,4-dihydroxyphenyl)-N-methylserine]
- penetration through the blood-brain barrier, in words [6]: can surprisingly penetrate and transfer through the blood-brain barrier into the brain
- metabolised at 0.5 h, 4500 µM [2]: < 0.00031%
- decarboxylation in vitro by homogenate of whole brains of mice, in words ([5]; in vitro, mouse whole brain homogenate): can hardly be decarboxylated into adrenaline
- Body Temperature (°C.) (Average ± Standard deviation) 24 Hours after administration of reserpine [4]: 35.4 ± 0.4 °C
- effect on reserpine-induced decrease in body temperature, in words ([4]; 800 mg/kg i.p.): remarkably inhibits the reserpine-induced decrease in the body temperature
- effect on reserpine-induced muscular rigidity, in words ([4]; 800 mg/kg i.p.): remarkably improves (eliminates or weakens) the muscular rigidity
- Body Temperature (°C.) (Average ± Standard deviation) 1 Hour after administration of adrenaline carboxylic acid ([4]; 800 mg/kg i.p.): 38.7 ± 0.5 °C
- Muscular Rigidity: number of mice exhibiting significant improvement in the muscular rigidity per the total number of mice in each group ([4]; 800 mg/kg i.p.): 5/5
- Body Temperature (°C.) (Average ± Standard deviation) Before administration of reserpine [4]: 39.0 ± 0.2 °C

Structure (SMILES): CN[C@H](C(=O)O)[C@H](O)c1ccc(O)c(O)c1 (relative stereo) [DL-threo-adrenalinecarboxylic acid, DL-threo-3-(3,4-dihydroxyphenyl)-N-methylserine]
- Quantity (as average) of the administered compound present in brain [1]: 2.0 n mole/g
- Quantity (as average) of adrenaline in brain ([1]; not administered: 0.37 n mole/g): 0.44 n mole/g
- Body Temperature (°C.) 1 Hour after ([7]; 1500 mg/kg i.p.): 32.9 °C
- Body Temperature (°C.) 2 Hours after ([7]; 1500 mg/kg i.p.): 32.6 °C
- Body Temperature (°C.) 1 Hour after ([7]; 2000 mg/kg i.p.): 34.0 °C
- Body Temperature (°C.) 2 Hours after ([7]; 2000 mg/kg i.p.): 32.5 °C
- effect on reserpine-induced decrease in body temperature, in words ([7]; 1500 or 2000 mg/kg i.p., compared to control mice receiving reserpine only): inhibited the reserpine-induced decrease in the body temperature
- Reduction (%) in the duration of tremor action (harmaline-induced tremor; 400 mg/kg i.p.): 34%
- Reduction (%) in the duration of tremor action (harmaline-induced tremor; 600 mg/kg i.p.): 37%
- reduction in duration of tremor action, comparison in words (harmaline-induced tremor; i.p., harmaline 10 mg/kg): significantly superior to DL-threo-DOPS
- acute toxicity: body weight, quantity of feedstock and quantity of water taken, treated vs control group (Test 4: acute toxicity; 7 days observation): No diference could be detected
- acute toxicity: anatomical examination, organ weights, bio-chemical tests of blood, tissue-pathological tests, treated vs control group (Test 4: acute toxicity; after 7 days): no significant difference existed
- Body Temperature (°C.) (Average ± Standard deviation) 24 Hours after administration of reserpine [4]: 34.9 ± 0.7 °C
- Body Temperature (°C.) (Average ± Standard deviation) 1 Hour after administration of adrenaline carboxylic acid ([4]; 800 mg/kg i.p.): 36.9 ± 0.3 °C
- Muscular Rigidity: number of mice exhibiting significant improvement in the muscular rigidity per the total number of mice in each group ([4]; 800 mg/kg i.p.): 0/5
- Body Temperature (°C.) (Average ± Standard deviation) Before administration of reserpine [4]: 39.1 ± 0.2 °C

Structure (SMILES): N[C@H](C(=O)O)[C@@H](O)c1ccc(O)c(O)c1 [L-erythro-DOPS]
- accumulation of noradrenaline in brain [3]: significant
- decarboxylation in vivo, leading to accumulation of noradrenaline in heart [3]: readily decarboxylated in vivo

Structure (SMILES): N[C@@H](C(=O)O)[C@H](O)c1ccc(O)c(O)c1 [D-erythro-DOPS]
- levels of noradrenaline in heart and brain [3]: slight increase
